Results from patent publication US8093406B2, “Cyclic sulfones with aminobenzyl substitution useful as BACE inhibitors” (Novartis AG, priority 2008, dated 2012).
Counter-ions that a name gives are not always drawn.

What follows are molecules tested against T1, Human BACE (Homo sapiens, UniProt P56817) (assay: Test 1: Inhibition of Human BACE). Settings: not given.
T1 construct: Recombinant BACE (extracellular domain, expressed in baculovirus and purified using standard methods); made in house
Type: biochemical
Experimental: Test 1: Inhibition of Human BACE
Recombinant BACE (extracellular domain, expressed in baculovirus and purified using standard methods) at 0.1 to 10 nM concentrations is incubated with the test compound at various concentrations for 1 hour at room temperature in 10 to 100 mM acetate buffer, pH 4.5, containing 0.1% CHAPS. […] IC50 values are calculated from percentage of inhibition of BACE-activity as a function of the test compound concentration.

T1 sequence (P56817 46-457 limits assumed): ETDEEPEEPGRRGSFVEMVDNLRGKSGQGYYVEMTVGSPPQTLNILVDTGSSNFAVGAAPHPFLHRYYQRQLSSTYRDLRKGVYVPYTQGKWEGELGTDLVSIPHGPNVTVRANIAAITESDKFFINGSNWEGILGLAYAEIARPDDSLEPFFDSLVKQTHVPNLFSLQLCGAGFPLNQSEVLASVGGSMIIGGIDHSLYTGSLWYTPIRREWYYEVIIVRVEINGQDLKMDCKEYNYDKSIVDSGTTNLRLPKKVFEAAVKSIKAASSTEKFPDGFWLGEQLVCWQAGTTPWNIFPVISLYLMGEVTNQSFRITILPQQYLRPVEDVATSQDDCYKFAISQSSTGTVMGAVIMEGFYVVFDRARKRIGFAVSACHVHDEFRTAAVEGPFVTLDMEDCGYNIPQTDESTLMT

IC50 | SMILES
0.004 µM | COC[C@@H](Oc1cc(C[C@@H]2C[S@@+]([O-])C[C@H](NCc3cccc(C(C)(C)C)c3)C2=O)cc(F)c1N)C(F)(F)F [Example 64, (1R,3S,5R)-3-[4-Amino-3-fluoro-5-((R)-2,2,2-trifluoro-1-methoxymethyl-ethoxy)-benzyl]-5-(3-tert-butyl-benzylamino)-1-oxo-tetrahydro-thiopyran-4-one trifluoroacetate]

Same assay, conditions: Test 1; recombinant BACE extracellular domain, acetate buffer pH 4.5, 1 hour incubation at room temperature, fluorescence-quenched APP-derived peptide substrate; read-out: Bace IC50

IC50 | SMILES
0.334 µM | COCC(Oc1cc(CC2C[S+]([O-])CC(NCc3cccc(OC(F)F)c3)C2O)cc(F)c1N)C(F)(F)F (stereo not shown) [Example 62]
0.118 µM | C[Si](C)(C)c1cccc(CNC2C[S+]([O-])CC(Cc3cc(F)c(N)c(OCC(F)(F)F)c3)C2O)c1 (stereo not shown) [Example 63]

Continued, molecule first:

SMILES | IC50
COC[C@@H](Oc1cc(C[C@@H]2C[S@@+]([O-])C[C@H](NCc3cc(OC)cc(C(C)(C)C)c3)[C@H]2O)cc(F)c1N)C(F)(F)F [Example 49, (1R,3S,4S,5R)-3-[4-Amino-3-fluoro-5-((R)-2,2,2-trifluoro-1-methoxymethyl-ethoxy)-benzyl]-5-(3-tert-butyl-5-methoxy-benzylamino)-1-oxo-tetrahydro-thiopyran-4-ol dihydrochloride] | 0.015 µM
COC[C@@H](Oc1cc(C[C@@H]2C[S@@+]([O-])C[C@H](NCc3ccc4c(c3)OC(C)(C)C4)[C@H]2O)cc(F)c1N)C(F)(F)F [Example 50, (1R,3S,4S,5R)-3-[4-Amino-3-fluoro-5-((R)-2,2,2-trifluoro-1-methoxymethyl-ethoxy)-benzyl]-5-[(2,2-dimethyl-2,3-dihydro-benzofuran-6-ylmethyl)-amino]-1-oxo-tetrahydro-thiopyran-4-ol dihydrochloride] | 2.4 µM
C[C@H](Oc1cc(C[C@@H]2C[S@@+]([O-])C[C@H](NCc3ccc4c(c3)C(C)(C)OC4)[C@H]2O)cc(F)c1N)C(F)(F)F [Example 52, (1R,3S,4S,5R)-3-[4-Amino-3-fluoro-5-((S)-2,2,2-trifluoro-1-methyl-ethoxy)-benzyl]-5-[(3,3-dimethyl-1,3-dihydro-isobenzofuran-5-ylmethyl)-amino]-1-oxo-hexa-hydro-1lambda*4*-thiopyran-4-ol] | 0.117 µM
COCC(Oc1cc(CC2C[S+]([O-])CC(NCc3cccc(OC)c3)C2O)cc(F)c1N)C(F)(F)F (stereo not shown) [Example 59] | 0.384 µM
